In ChEMBL document CHEMBL5653615 (J Biol Chem, 2013) one finds inhibition data, which are given here for 2 molecules.

In experiment [1] the target is T1, Dual specificity tyrosine-phosphorylation-regulated kinase 4 (Homo sapiens) (UniProt Q9NR20).
T1 sequence (whole entry): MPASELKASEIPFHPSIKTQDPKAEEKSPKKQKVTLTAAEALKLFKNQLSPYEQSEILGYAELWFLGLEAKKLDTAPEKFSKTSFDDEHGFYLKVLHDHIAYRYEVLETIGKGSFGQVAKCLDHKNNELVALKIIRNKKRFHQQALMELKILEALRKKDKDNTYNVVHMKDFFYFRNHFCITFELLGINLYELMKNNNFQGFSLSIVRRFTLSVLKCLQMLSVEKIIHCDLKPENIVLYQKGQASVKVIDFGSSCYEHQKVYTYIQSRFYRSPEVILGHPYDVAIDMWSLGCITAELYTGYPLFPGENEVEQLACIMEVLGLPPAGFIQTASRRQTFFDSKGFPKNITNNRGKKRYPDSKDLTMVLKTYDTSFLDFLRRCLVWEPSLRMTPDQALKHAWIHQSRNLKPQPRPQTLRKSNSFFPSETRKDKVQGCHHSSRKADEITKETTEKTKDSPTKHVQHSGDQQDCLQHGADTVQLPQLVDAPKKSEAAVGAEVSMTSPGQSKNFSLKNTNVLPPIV
In words: Inhibition of human DYRK4 at 18.6 nM by HotSpot assay relative to control.

Experiment [2] has as its target Leucine-rich repeat serine/threonine-protein kinase 2 (Homo sapiens) (UniProt Q5S007). In words: Inhibition of human LRRK2 at 18.6 nM by HotSpot assay relative to control.
For experiment [3], the target named is T2, Mitogen-activated protein kinase 13 (Homo sapiens) (UniProt O15264).
T2 sequence (whole entry): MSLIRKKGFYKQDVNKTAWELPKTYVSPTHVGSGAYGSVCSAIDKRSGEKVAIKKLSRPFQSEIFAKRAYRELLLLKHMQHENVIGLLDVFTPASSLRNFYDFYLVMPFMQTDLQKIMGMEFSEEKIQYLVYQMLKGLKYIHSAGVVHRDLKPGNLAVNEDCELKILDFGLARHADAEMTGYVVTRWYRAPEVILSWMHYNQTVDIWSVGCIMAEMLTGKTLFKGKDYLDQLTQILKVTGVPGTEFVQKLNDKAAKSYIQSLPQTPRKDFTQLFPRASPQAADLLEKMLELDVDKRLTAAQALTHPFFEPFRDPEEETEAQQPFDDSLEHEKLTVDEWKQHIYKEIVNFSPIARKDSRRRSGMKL
In words: Inhibition of human MAPK13 at 18.6 nM by HotSpot assay relative to control.

For experiment [4], the target named is T3, Protein kinase C iota type (Homo sapiens) (UniProt P41743).
T3 sequence (whole entry): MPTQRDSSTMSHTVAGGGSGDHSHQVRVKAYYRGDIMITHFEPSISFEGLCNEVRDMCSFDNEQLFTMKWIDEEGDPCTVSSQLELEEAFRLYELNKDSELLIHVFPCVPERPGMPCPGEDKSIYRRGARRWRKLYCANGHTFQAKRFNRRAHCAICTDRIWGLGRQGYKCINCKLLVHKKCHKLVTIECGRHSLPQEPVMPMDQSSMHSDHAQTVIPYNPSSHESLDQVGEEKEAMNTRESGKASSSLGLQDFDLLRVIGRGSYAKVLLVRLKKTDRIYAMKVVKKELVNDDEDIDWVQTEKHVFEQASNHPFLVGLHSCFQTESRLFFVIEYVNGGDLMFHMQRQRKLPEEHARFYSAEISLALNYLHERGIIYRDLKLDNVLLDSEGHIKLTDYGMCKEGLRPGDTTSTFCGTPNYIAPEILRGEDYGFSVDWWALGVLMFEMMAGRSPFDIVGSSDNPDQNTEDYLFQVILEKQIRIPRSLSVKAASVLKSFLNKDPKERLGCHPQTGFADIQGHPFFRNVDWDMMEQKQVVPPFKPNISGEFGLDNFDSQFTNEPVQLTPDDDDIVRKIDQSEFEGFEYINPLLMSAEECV
In words: Inhibition of human PKCiota at 18.6 nM by HotSpot assay relative to control.

Experiment [5] concerns the target Leukocyte tyrosine kinase receptor (Homo sapiens) (UniProt P29376). In words: Inhibition of human LTK at 18.6 nM by HotSpot assay relative to control.
For experiment [6], the target named is Mitogen-activated protein kinase 8 (Homo sapiens) (UniProt P45983). Description: Inhibition of human JNK1 at 1.82 nM by HotSpot assay relative to control.
The target in experiment [7] is T4, Serine/threonine-protein kinase Nek1 (Homo sapiens) (UniProt Q96PY6).
T4 sequence (whole entry): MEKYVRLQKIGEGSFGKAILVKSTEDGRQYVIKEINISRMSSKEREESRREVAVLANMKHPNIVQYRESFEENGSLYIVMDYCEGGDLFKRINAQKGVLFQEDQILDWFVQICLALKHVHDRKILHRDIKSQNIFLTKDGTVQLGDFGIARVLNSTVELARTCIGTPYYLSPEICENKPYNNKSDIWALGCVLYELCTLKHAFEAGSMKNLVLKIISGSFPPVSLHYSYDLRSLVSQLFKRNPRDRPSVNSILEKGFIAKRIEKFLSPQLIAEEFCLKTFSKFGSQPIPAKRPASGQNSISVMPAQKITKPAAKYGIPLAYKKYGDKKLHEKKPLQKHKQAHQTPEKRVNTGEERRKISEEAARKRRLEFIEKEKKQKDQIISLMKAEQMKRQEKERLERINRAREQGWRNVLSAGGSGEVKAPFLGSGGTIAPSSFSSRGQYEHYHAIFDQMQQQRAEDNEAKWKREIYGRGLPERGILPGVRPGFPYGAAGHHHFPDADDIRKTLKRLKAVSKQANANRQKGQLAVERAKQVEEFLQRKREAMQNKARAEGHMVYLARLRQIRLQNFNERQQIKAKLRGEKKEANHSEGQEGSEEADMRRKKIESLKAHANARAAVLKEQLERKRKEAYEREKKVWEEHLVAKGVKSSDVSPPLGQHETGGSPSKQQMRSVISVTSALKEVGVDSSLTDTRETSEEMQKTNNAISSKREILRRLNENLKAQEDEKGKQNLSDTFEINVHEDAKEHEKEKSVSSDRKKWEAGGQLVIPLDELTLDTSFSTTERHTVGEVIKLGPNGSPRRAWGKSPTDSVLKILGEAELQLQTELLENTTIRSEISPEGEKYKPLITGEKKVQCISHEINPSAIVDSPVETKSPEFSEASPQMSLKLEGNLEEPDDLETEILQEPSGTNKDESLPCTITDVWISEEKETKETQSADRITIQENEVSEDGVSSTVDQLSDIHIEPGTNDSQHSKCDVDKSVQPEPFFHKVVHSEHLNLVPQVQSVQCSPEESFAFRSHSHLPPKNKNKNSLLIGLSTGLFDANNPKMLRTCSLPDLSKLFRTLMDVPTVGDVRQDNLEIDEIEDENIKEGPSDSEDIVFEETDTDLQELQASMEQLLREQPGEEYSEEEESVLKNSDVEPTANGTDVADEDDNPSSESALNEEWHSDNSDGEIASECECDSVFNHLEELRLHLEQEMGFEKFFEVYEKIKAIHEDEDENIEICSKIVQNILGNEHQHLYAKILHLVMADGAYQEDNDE
Description: Inhibition of human NEK1 at 1.82 nM by HotSpot assay relative to control.

The structures appear in SMILES notation.

Leukocyte tyrosine kinase receptor (Homo sapiens), sequence (P29376 whole entry): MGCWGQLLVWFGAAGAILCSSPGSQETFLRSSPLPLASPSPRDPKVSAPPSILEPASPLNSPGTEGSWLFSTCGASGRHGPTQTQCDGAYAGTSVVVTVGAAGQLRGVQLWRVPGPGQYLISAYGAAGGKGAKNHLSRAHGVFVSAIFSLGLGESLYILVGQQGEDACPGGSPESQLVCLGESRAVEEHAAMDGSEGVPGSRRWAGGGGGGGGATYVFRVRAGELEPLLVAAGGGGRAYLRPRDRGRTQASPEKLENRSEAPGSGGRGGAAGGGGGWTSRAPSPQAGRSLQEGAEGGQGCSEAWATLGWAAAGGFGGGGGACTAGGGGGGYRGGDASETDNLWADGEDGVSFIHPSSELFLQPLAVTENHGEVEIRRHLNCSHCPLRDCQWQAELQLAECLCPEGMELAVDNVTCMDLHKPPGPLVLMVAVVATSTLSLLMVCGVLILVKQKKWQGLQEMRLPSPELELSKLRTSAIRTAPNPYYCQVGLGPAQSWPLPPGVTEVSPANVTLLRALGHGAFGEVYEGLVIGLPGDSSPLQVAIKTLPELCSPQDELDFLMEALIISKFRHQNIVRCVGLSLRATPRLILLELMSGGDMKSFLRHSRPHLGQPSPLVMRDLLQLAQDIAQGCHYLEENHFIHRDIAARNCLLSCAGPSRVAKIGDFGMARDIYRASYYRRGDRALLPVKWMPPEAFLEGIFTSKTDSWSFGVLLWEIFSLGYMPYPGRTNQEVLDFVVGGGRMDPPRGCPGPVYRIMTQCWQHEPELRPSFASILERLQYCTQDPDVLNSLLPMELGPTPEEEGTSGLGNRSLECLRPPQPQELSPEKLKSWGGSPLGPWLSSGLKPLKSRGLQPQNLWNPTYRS
Leucine-rich repeat serine/threonine-protein kinase 2 (Homo sapiens), sequence (Q5S007 whole entry): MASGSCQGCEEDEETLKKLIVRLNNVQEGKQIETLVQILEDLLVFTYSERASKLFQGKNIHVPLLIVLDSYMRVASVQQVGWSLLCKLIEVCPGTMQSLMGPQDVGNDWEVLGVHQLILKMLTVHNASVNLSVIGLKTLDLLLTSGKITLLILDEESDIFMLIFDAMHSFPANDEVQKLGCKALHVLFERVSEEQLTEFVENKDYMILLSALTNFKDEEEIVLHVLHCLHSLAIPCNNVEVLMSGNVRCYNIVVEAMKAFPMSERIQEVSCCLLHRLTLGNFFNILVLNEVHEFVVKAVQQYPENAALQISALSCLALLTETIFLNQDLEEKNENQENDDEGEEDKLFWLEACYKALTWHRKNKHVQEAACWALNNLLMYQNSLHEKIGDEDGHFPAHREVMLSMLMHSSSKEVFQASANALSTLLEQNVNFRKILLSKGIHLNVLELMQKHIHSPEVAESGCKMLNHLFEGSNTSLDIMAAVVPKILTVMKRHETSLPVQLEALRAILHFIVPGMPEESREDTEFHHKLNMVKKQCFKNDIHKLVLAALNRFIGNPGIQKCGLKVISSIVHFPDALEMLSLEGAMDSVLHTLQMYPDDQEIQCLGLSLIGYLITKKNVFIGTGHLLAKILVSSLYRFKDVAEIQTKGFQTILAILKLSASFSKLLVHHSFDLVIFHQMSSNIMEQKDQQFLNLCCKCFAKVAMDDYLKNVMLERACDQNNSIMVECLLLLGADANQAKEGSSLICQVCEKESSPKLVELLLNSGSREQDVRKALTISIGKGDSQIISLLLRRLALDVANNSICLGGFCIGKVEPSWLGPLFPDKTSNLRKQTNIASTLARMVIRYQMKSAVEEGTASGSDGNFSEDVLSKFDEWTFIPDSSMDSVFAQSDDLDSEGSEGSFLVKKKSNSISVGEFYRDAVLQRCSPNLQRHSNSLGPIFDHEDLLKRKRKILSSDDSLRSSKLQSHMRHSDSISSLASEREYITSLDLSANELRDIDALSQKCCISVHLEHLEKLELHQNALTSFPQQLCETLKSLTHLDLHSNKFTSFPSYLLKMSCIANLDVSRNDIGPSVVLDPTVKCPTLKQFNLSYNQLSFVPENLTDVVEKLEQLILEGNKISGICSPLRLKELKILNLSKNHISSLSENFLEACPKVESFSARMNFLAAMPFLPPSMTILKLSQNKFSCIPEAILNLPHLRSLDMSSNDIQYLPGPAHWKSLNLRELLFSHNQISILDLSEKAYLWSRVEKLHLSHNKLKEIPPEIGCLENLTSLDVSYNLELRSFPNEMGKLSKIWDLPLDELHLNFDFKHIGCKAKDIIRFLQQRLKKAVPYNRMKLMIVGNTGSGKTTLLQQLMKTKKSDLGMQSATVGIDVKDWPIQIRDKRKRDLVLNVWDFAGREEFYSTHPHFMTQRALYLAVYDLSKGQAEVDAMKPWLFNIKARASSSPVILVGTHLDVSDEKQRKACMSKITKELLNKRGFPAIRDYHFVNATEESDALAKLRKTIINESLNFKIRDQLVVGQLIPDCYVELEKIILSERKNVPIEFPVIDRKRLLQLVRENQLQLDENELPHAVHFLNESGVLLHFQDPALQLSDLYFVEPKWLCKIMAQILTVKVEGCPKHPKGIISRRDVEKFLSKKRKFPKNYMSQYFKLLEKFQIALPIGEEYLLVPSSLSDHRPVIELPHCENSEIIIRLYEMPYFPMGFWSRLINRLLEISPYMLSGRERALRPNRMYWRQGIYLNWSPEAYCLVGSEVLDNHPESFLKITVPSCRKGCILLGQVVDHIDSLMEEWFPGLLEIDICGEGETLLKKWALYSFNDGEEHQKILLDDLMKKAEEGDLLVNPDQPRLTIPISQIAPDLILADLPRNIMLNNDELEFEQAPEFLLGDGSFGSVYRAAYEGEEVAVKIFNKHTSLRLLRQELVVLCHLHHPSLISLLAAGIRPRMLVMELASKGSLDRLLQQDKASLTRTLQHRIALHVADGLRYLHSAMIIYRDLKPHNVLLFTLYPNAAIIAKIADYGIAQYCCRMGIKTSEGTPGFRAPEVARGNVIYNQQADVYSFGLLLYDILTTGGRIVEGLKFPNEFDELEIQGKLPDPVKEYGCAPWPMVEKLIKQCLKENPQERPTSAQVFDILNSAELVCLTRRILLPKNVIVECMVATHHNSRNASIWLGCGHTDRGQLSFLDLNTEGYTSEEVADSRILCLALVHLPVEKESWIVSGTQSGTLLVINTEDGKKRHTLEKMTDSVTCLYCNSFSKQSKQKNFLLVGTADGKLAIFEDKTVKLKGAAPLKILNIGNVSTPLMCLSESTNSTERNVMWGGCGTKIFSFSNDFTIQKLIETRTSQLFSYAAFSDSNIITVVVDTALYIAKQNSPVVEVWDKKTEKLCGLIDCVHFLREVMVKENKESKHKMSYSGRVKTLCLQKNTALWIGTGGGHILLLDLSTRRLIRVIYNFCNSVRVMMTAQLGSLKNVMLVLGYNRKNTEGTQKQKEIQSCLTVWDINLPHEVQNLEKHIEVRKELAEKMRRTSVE
Mitogen-activated protein kinase 8 (Homo sapiens), sequence (P45983 whole entry): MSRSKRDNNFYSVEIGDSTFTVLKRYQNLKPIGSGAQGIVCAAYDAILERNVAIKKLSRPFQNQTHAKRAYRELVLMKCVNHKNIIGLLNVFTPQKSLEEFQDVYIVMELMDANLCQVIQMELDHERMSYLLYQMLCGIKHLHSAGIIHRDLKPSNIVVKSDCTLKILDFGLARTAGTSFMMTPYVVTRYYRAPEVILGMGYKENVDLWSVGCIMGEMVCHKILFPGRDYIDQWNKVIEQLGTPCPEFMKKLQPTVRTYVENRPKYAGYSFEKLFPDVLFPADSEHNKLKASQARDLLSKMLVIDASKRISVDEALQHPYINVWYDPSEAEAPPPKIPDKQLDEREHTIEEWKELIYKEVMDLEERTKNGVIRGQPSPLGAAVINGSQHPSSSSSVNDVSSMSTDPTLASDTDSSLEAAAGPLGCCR

Usually inhibition stands for the drop in the measured response relative to a control, in per cent. With `C[C@]1(O)C[C@@H](c2nc(-c3ccc4ccc(-c5ccccc5)nc4c3)c3c(N)nccn32)C1`, the inhibition in experiment [1] was -1.52%; in experiment [2] it was -3.07%; in experiment [3] it was -4.06%; in experiment [4], -2.19%; in experiment [5], -0.44%.

Regarding `C[C@@]1(C(=O)Nc2ccc(F)nc2)CCCN1c1nc(Nc2cc(C3CC3)n[nH]2)c2cccn2n1`, the inhibition in experiment [6] is -1.19%; in experiment [7] it was -2.03%.
